From article PMC6089501 (Journal of Medicinal Chemistry, 2018) come the findings set out here.

Assay [1] has as its system M. tuberculosis QcrB M342T mutant strain. In kind it is cell-based, Mycobacterium tuberculosis.
Assay [2] concerns M. tuberculosis QcrB T313I mutant strain. It is filed as cell-based, Mycobacterium tuberculosis.

≈ marks a conversion by molar mass, not a printed value.

In the case of `CNC(=O)c1sc(N2CCOCC2)cc1OCCc1ccccc1` [Compound 21, N-Methyl-5-morpholino-3-(2-phenylethoxy)thiophene-2-carboxamide], in assay [1], the “MIC M342T” value was 4.8 µM (≈ 1.66 µg/mL) and the “fold shift M342T” value was determined as 60. Further, in assay [2], the “MIC T313I” value is above 20 µM and the “fold shift T313I” value is above 250.

In the case of `NC(=O)c1sc(-c2ccncc2)cc1OCCc1ccccc1` [Compound 35, 3-(2-Phenylethoxy)-5-(4-pyridyl)thiophene-2-carboxamide], in assay [1], the “MIC M342T” value is above 20 µM and the “fold shift M342T” value is recorded as above 3. In assay [2], the “MIC T313I” value is above 50 µM and the “fold shift T313I” value is reported as above 8.6.

`NC(=O)c1sc(N2CCOCC2)cc1OCCc1ccc(OC(F)(F)F)cc1` [Compound 37, 5-Morpholino-3-[2-[4-(trifluoromethoxy)phenyl]ethoxy]thiophene-2-carboxamide]: in assay [2], the “MIC T313I” value was 11 µM (≈ 4.58 µg/mL) and the “fold shift T313I” value was 46.

In the case of `NC(=O)c1sc(N2CCOCC2)cc1OCCc1cccc(F)c1` [Compound 39, 3-[2-(3-Fluorophenyl)ethoxy]-5-morpholinothiophene-2-carboxamide], in assay [1], the “MIC M342T” value amounted to 7 µM (≈ 2.45 µg/mL) and the “fold shift M342T” value came out at 14. Moreover, in assay [2], the “MIC T313I” value is 59 µM (≈ 20.7 µg/mL) and the “fold shift T313I” value was 110.

Turning to `NC(=O)c1sc(N2CCOCC2)cc1OCCc1ccccc1` [Compound 1, 5-Morpholino-3-phenethoxythiophene-2-carboxamide], in assay [1], the “MIC M342T” value is 25 µM (≈ 8.31 µg/mL) and the “fold shift M342T” value is given as 19. In addition, in assay [2], the “MIC T313I” value stood at 53 µM (≈ 17.6 µg/mL) and the “fold shift T313I” value turned out to be 41.
